Measured values reported in patent US20050222418A1, “Novel tyloindicines and related processes, pharmaceutical compositions and methods” (priority 2002, published 2005).

How the values were obtained:
[1] = tested on: KB cells and its drug resistant cells; assay: Cross resistance studies in drug resistant cell lines; format: cell-based, human; settings: cells resistant to VP-16, VCR, CPT or DOX
Source text: (§1) FIG. 1 illustrates the following referred to in the Examples herein: • “A. Chemical structure” provides the structural formulae for (+)-(S)-tylophorine (also referred to herein as compound “III-2” and DCB-3500); DCB-3501; “compound II-3a of FIG. 15”; and, in FIGS. 18-22, as […]); DCB-3502 (also referred to herein as “compound II-2); and DCB-3503 (also referred to herein as “NSC 716802”; “compound II-3b” of FIG. 15; and “ZH-152”). • “Table 1, B and C” provides EC50 and LD50 values for use of DCB-3500, DCB-3501, DCB-3502, and DCB-3503 against KB and HepG2 cancer cell lines resistant to various anticancer drugs, including VP-16 (etoposide), VCR (vincristine), CPT (camptothecin), and DOX (doxorubicin). • “Table 2 A, and B, and Table 3” illustrate that KB and HepG2 cancer cell lines are inhibited by the compounds of the instant invention. […] At the end of treatment, cells were washed, resuspended in PBS and stained with propidium iodide containing Rnase A for flow cytometric analysis. Data were analyzed using Modfit software.
FIG. 18 describes cross resistance studies in KB cell lines using DCB-3503.
(§2) Cells (1×10^4/well) were plated in 24-well plates. After 24 h, cells were treated with drugs for three generation times, then fixed and stained with 0.5% methylene blue in 50% ethanol for 2 h, followed by washing with tap water to remove excess color. Plates were dried and then resuspended in 1% sarkosyl, rotated at room temperature for 3 h. Cell growth was quantitated from the amount of methylene blue absorbed to the cells as measured by a spectrophotometer (Molecular Dynamics) at 595 nm. All experiments were performed in triplicate wells and were repeated at least three times. (see FIG. 1, Table 1B and Table 1C).

[2] = tested on: NF-κB mediated transcription; assay: Firefly luciferase reporter assay in HepG2 cells; format: cell-based, human; settings: HepG2 cells transfected with pBIIX-luc, TNFa stimulation
Method: HepG2 cells were transiently transfected with firefly luciferase reporter vectors pMyc-TA-luc, pE2F-TAO-luc, pAP1-luc, pCRE-luc, or pBIIX-luc (containing two tandemly repeated NF-kB binding sites), respectively, along with internal control vector phRL-luc which is a promoterless renilla luciferase reporter vector. The day after transfection, cells were pretreated with increasing concentrations of 3500 for 1 h, then cells were stimulated with serum for 24 h, or TPA, forskolin or TNFa for 6 h Firefly and renilla uciferase activities were measured using Promega's dual-luciferase assay kit Data presented is firefly luciferase activity.
HepG2 cells were plated at a density of 2×10^4 per well (48-well plate) and transfected with 0.2 μg of firefly luciferase reporter vector pMyc-TA-luc, pE2F-TA-luc, pAP1-luc, pCRE-luc, or pBIIX-luc (containing two tandemly repeated NF-κB binding sites) respectively, along with internal control vector promoter-less renilla luciferase reporter vector phRL (Promega), using FuGENE 6™ transfection reagent according to the manufacturer's instructions. Cell extracts were prepared and luciferase activity was measured using a Dual-luciferase (firefly and renilla luciferase) assay kit according to the manufacturer's instructions.

[3] = tested on: HepG2 cells; assay: Cell cycle analysis (flow cytometry), HepG2; format: cell-based, human; settings: 24 h treatment
Source text: as §1
(§3) KB and HepG2 cells were treated for 24 h with increasing concentrations of DCB-3500 and DCB-3503. At the end of treatment, cells were trypsinized, and the resulting cell suspensions were centrifuged at 1000 rpm for 5 min. The cells were fixed overnight in 70% ethanol at 4° C., centrifuged at 1000 rpm for 5 min, the pellets were washed twice with ice-cold PBS. Cell pellets were then resuspended in 0.5 ml PBS containing 50 μg/ml propidium iodide (Sigma-Aldrich) and 100 μg/ml RNase A (Sigma-Aldrich), incubated at 37° C. for 30 min, and then analyzed by FACScan using Cell Quest software (Becton Dickinson Labware, Franklin Lakes, N.J.). Data were analyzed using Modfit LT version 3.1 software (Verity Software House, Topsham, Me.) for cell cycle profile. (FIG. 1, Table 3)

[4] = tested on: KB cells; assay: Cell cycle analysis (flow cytometry), KB; format: cell-based, human; settings: 24 h treatment
Source text: as §1, §3

[5] = tested on: human cell-line tumor panel; assay: NCI human cell-line tumor panel (DTP screen); format: cell-based; settings: for antitumor activity in NCI in vitro screen: sixty-panel in vitro screen against human-derived tumors; for LC50 for several melanoma and lung cancer cell lines versus the other cell lines: DTP panel; for ranking by average concentration required for total growth inhibition (TGI): screen of 33,744 compounds, fifty-four cell lines
Source text: The ranking system was based on the average concentration required to yield a total growth inhibition (TGI) in the numbers of cell lines of the screen (54 for tylo F and tylo G). […] In fact, for many cell lines, the data were off scale; designated as <10^−10 M.

[6] = tested on: KB (head and neck cancer); assay: In vitro cell culture growth inhibition, KB; format: cell-based, human
Method: (§4) Compound II-3 (NSC-716802) was tested in in vitro cell culture studies.
as §2

[7] = tested on: HepG2 (hepatocarcinoma); assay: In vitro cell culture growth inhibition, HepG2; format: cell-based, human
Method: as §4, §2

[8] = Toxicity studies in C57BL/6 mice; format: in vivo
Source text: FIG. 21 illustrates toxicity studies of DCB-3503 in C57BL/6 mice.

[9] = tested on: SK-MEL-2; assay: In vitro cell culture growth inhibition, SK-MEL-2; format: cell-based, human
Method: as §4, §2

[10] = tested on: HepG2 tumor; assay: HepG2 tumor growth inhibition in nude mice; format: in vivo; settings: 10 mg/kg ip once daily for 5 days; for tumor growth inhibition: HepG2 tumor-bearing nude mice
Source text: FIG. 22 illustrates toxicity and tumor growth inhibition studies using DCB-3503.
Four-week-old male NCR-nude mice were obtained from Taconic, and acclimated to laboratory conditions 1 week before tumor implantation. Human HepG2 tumor xenografts were established by injecting subcutaneously 2×10^6 HepG2 cells. […] Tumor weight was estimated by using the equation: Length of tumor×(wide of tumor/2)^2. (FIG. 1(a))

[11] = tested on: KB and HepG2 cells; assay: Clonogenic assay; format: cell-based, human; settings: 24 h exposure, colonies counted after 8 generations
Method: FIG. 19 illustrates the effect of DCB-3503 (ZH-152) in clonogenic assays. As depicted, cells were seeded at 5×10^4 per well, then DCB-3503 was added at concentrations ⅓, 1× and 3× the IG50. After a 24 h treatment, the cells were recounted and seeded into a fresh 6 well plate at 200 cells per well. After 8 generations of time the colonies were stained with methylene blue and counted. The cloning efficiency for HepG2 was 10% and for KB was 94%. Both cell lines were exposed to DCB-3503 with the concentration indicated for 24 h. The loss of clonegenic efficiency of cells post drug treatment is shown. […] This supports the previous observation using a different procedure.
They were then grown in the absence of the drug. After eight generations, the colonies were stained and counted.
Cells (5×10^4/well) were plated in 6-well plates. After 24 h, cells were treated with drugs for an additional 24 h. Cells were then trypsinized, counted, and cell viability was determined by trypan blue staining, 200 trypan blue negative cells were plated in triplicate in 6-well plates and grown for eight to ten generation times, then fixed and stained with 0.5% methylene blue in 50% ethanol for 1 h, after plates were washed and dried, the colonies were counted. (FIG. 1, Table 1C).

In the case of `COc1cc2c3c(c4cc(OC)c(OC)cc4c2cc1OC)CN1CCCC1C3` (stereo in doubt) [DCB-3500, (+)-(S)-tylophorine], the “cross-resistance with conventional anticancer drugs” value (from here on “cross-resistance”) [1] is reported as “no cross-resistance”, the “activity against NF-κB mediated transcription” value [2] is reported as “potent activity” and the “effect on cell cycle progression (S phase)” value (shortened to “effect”) [3] is reported as “not in HepG2 cells”. For the same compound, the “effect” value [4] was “induce S phase accumulation”.
For `COc1cc2c3c(c4cc(OC)c(OC)cc4c2cc1OC)[C@@H](O)[C@@H]1CCCN1C3` [DCB-3501], the “cross-resistance” value [1] was “no cross-resistance” and the “antitumor activity in NCI in vitro screen” value (shortened to “antitumor activity in NCI”) [5] was “extraordinary antitumor activity”.
With `COc1cc2c(cc1OC)-c1cc(OC)c(OC)cc1[C@H]1CN3CCCC3C=C21` (stereo partly drawn) [II-2, (S)-2,3,6,7-Tetramethoxy-8b,9,10,11,12,12a-hexahydro-9a-aza-cyclopenta[b]-triphenylene] the “cross-resistance” value [1] was “no cross-resistance”, the “potency relative to compound II-3 (times more)” value ([6]; KB cell growth in culture) was 3 to 5 and the “antitumor activity in NCI” value [5] was “active”. For the same compound, the “antitumor activity in NCI” value ([5]; listed as NSC-717335) was “potent antitumor activity”, the “activity against NF-κB mediated transcription” value [2] was “potent activity” and the “potency relative to compound II-3 (times more)” value ([7]; HepG2 cell growth in culture) was 3 to 5.
In the case of `COc1cc2c3c(c4cc(OC)c(OC)cc4c2cc1OC)[C@H](O)[C@@H]1CCCN1C3` [II-3, (12S,13S)-2,3,6,7-Tetramethoxy-9,10,11,12,12a,13-hexahydro-9a-aza-cyclopenta[b]triphenylen-13-ol], the “cross-resistance” value [1] is reported as “sensitive”, the “cross-resistance” value ([1]; listed as 3503) is reported as “no cross-resistance” and the “cross-resistance” value ([1]; listed as ZH-152) is reported as “still sensitive”. The GI50 ([6]; KB) was 0.2 µM, the acute toxicity [8] was “manageable” and the “toxicity (dose causing weight loss)” value [8] was 10 mg/kg. The “antitumor activity in NCI” value [5] was “active”, the “antitumor activity in NCI” value ([5]; listed as 3503) was “extraordinary antitumor activity” and the “antitumor activity in NCI” value ([5]; listed as NSC-716802) was “potent antitumor activity”. The GI50 [9] was 0.16 µM, the weight loss ([10]; HepG2 tumor-bearing mice) was “without significant weight loss” and the tumor growth inhibition ([10]; 10 mg/kg) was “profound antitumor effect”. For the same compound, the tumor growth inhibition ([10]; listed as DCB-3503, 10 mg/kg) was “potent inhibitory activity”, the “activity against NF-κB mediated transcription” value [2] was “potent activity” and the “effect” value [3] was “inhibition at targets that are responsible for S-phase progression”. The “effect” value ([3]; listed as 3503) was “not in HepG2 cells”, the “effect” value ([3]; listed as DCB-3503) was “slows down the cell progress in S-phase” and the “effect” value [4] was “inhibition at targets that are responsible for S-phase progression”. The “effect” value ([4]; listed as 3503) was “induce S phase accumulation”, the “effect” value ([4]; listed as DCB-3503) was “slows down the cell progress in S-phase” and the “loss of clonogenic efficiency, HepG2 versus KB” value [11] was “more sensitive”. The “loss of clonogenic efficiency, HepG2 versus KB” value ([11]; listed as DCB-3503) was “HepG2 is much more sensitive than KB cells” and the GI50 ([7]; HepG2) was 0.06 µM.
With `COc1ccc(C2=C[C@]3(O)CCCN3C[C@@H]2c2ccc(OC)c(OC)c2)cc1` [tylo F, tyloindicine F] the “LC50 for several melanoma and lung cancer cell lines versus the other cell lines” value [5] was “two orders of magnitude less” and the “ranking by average concentration required for total growth inhibition (TGI)” value [5] was “most potent anticancer agents examined”.
With `COc1cc2c(cc1OC)-c1cc(OC)c(OC)cc1[C@H]1CN3CCC[C@@]3(O)C=C21` [tylo G, tyloindicine G] the “LC50 for several melanoma and lung cancer cell lines versus the other cell lines” value [5] was “two orders of magnitude less” and the “ranking by average concentration required for total growth inhibition (TGI)” value [5] was “most potent anticancer agents examined”.
In the case of `COc1cc2c(cc1OC)[C@H]1CN3CCC[C@H]3C=C1c1ccc(OC)c(O)c1-2` [tylo H, tyloindicine H], the “antitumor activity in NCI” value [5] is reported as “active”.
With `COc1ccc(C2=CN3CCC[C@H]3C=C2c2cc(O)c(OC)c(OC)c2)cc1OC` [tylo I, tyloindicine I] the “antitumor activity in NCI” value [5] was “active”.
